Assay results reported in patent publication US20250163038A1, “CBL-B MODULATORS AND USES THEREOF” (Nimbus Clio, Inc., priority 2021, published 2025).

How the values were obtained:
[1] = molecular target: Recombinant human Cbl-b (aa 36-427) (Homo sapiens, UniProt Q13191); assay: Cbl-b Biochemical Assay (TR-FRET); settings: read-out: TR-FRET hCbl-b IC50
[2] = system: Jurkat (clone E6-1) cells with NFAT luciferase reporter; assay: Jurkat reporter assay (NFAT Luciferase); type: cell-based; settings: Homo sapiens; Jurkat NFAT luciferase reporter cells, anti-CD3 stimulation, 6 hr; read-out: Jurkat NFAT EC50
[3] = molecular target: T1, Recombinant human c-Cbl (aa 47-435) (Homo sapiens, UniProt P22681); assay: c-Cbl Biochemical Assay (TR-FRET); settings: hc-Cbl Biochemical Assay (TR-FRET); read-out: TR-FRET hcCbl IC50
T1 sequence (P22681 47-435): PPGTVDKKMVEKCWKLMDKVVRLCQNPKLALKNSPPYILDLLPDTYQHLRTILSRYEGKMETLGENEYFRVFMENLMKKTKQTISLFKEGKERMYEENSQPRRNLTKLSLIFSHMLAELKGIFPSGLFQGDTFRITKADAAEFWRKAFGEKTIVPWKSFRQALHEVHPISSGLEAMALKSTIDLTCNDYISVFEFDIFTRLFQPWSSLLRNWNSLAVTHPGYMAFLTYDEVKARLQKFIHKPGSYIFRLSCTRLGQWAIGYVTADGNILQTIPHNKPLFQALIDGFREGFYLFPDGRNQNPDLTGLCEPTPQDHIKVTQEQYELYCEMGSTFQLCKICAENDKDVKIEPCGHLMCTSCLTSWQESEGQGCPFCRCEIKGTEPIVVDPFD

Recombinant human Cbl-b (aa 36-427), sequence (Q13191 36-427): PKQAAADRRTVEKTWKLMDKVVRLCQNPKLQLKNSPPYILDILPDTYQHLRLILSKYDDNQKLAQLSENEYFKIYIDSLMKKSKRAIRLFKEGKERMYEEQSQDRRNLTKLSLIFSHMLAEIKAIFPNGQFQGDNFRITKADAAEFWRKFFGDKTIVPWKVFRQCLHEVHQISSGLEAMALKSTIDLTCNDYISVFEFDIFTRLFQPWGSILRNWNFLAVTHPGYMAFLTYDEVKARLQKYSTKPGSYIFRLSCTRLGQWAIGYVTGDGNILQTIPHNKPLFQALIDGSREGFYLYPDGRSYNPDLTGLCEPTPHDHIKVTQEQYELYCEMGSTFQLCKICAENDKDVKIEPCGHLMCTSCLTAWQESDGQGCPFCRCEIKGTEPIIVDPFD

Row | Compound | IC50 [1] [µM] | EC50 [2] [µM] | IC50 [3] [µM]
1 | CCNc1cc(-c2ccccc2-c2nncn2C)cc(-c2nc3cc(CN4CCC5(CC5)C4)cc(C(F)(F)F)c3[nH]2)n1 [AAG-4, 6-(6-{5-Azaspiro[2.4]heptan-5-ylmethyl}-4-(trifluoromethyl)-3H-1,3-benzodiazol-2-yl)-N-ethyl-4-[2-(4-methyl-1,2,4-triazol-3-yl)phenyl]pyridin-2-amine] | 0.2 to 1 | 1 to 10 | 10 to 50
2 | C[C@H](c1cc(C(F)(F)F)c2[nH]c(-c3cccc(C4(Cc5nncn5C)COC4)c3)nc2c1)N1CCC2(CC2)C1 [ACN-1, (R)-5-(1-(5-Azaspiro[2.4]heptan-5-yl)ethyl)-2-(3-(3-((4-methyl-4H-1,2,4-triazol-3-yl)methyl)oxetan-3-yl)phenyl)-7-(trifluoromethyl)-1H-benzo[d]imidazole] | 0.2 to 1 | 1 to 10 | 0.2 to 1
3 | Cn1cnnc1-c1cc(F)ccc1-c1cccc(-c2nc3cc(CNCC4COC4)c(F)c(F)c3o2)c1 [JE-1, 1-(6,7-Difluoro-2-(4′-fluoro-2′-(4-methyl-4H-1,2,4-triazol-3-yl)-[1,1′-biphenyl]-3-yl)benzo[d]oxazol-5-yl)-N-(oxetan-3-ylmethyl)methanamine] | < 0.2 | < 0.2 | 0.2 to 1
4 | C[C@H]1CCCN(Cc2cc(F)c3oc(-c4cc(-c5ccc(C#N)cc5-c5nncn5C)cc(C5CC5)n4)nc3c2)C1 [AGI-1, 4-[2-Cyclopropyl-6-(7-fluoro-5-{[(3S)-3-methylpiperidin-1-yl]methyl}-1,3-benzoxazol-2-yl)pyridin-4-yl]-3-(4-methyl-1,2,4-triazol-3-yl)benzonitrile] | < 0.2 | < 0.2 | < 0.2
5 | Cn1cnnc1-c1cc(F)ccc1-c1cccc(-c2nc3cc(CNCC(=O)N4CCC4)cc(C(F)(F)F)c3o2)c1 [HE-4, 1-(Azetidin-1-yl)-2-(((2-(4′-fluoro-2′-(4-methyl-4H-1,2,4-triazol-3-yl)-[1,1′-biphenyl]-3-yl)-7-(trifluoromethyl)benzo[d]oxazol-5-yl)methyl)amino)ethan-1-one] | < 0.2 | 1 to 10 | < 0.2
6 | Cn1cnnc1-c1cc(F)ccc1-c1cccc(-c2nc3nc(CN[C@@H]4CCC[C@@H]4O)ccc3o2)c1 [IB-7, (1S,2R)-2-(((2-(4′-Fluoro-2′-(4-methyl-4H-1,2,4-triazol-3-yl)-[1,1′-biphenyl]-3-yl)oxazolo[4,5-b]pyridin-5-yl)methyl)amino)cyclopentan-1-ol] | < 0.2 | 1 to 10 | 0.2 to 1
7 | Cn1cnnc1-c1cc(F)ccc1-c1cccc(-c2nc3cc(CN[C@@H]4CCC[C@@H]4O)ccc3[nH]2)c1 [BY-1, (1S,2R)-2-(((2-(4′-Fluoro-2′-(4-methyl-4H-1,2,4-triazol-3-yl)-[1,1′-biphenyl]-3-yl)-1H-benzo[d]imidazol-5-yl)methyl)amino)cyclopentan-1-ol] | < 0.2 | 1 to 10 | 1 to 10
8 | Cn1cnnc1-c1cc(F)ccc1-c1cccc(-c2nc3cc(CNCC4(O)CCC4)c(F)c(F)c3o2)c1 [IW-1, 1-((((6,7-Difluoro-2-(4′-fluoro-2′-(4-methyl-4H-1,2,4-triazol-3-yl)-[1,1′-biphenyl]-3-yl)benzo[d]oxazol-5-yl)methyl)amino)methyl)cyclobutan-1-ol] | < 0.2 | < 0.2 | < 0.2
9 | COCCNCc1ccc2oc(-c3cc(-c4ccc(C#N)cc4-c4nncn4C)cc(C4CC4)n3)nc2c1 [AEN-15, 4-[2-Cyclopropyl-6-(5-{1[(2-methoxyethyl)amino]methyl}-1,3-benzoxazol-2-yl)pyridin-4-yl]-3-(4-methyl-1,2,4-triazol-3-yl)benzonitrile] | < 0.2 | 0.2 to 1 | 0.2 to 1
10 | COC(=O)c1cc(C)c2oc(-c3cc(-c4ccc(F)cc4-c4nncn4C)cc(C4CC4)n3)nc2c1 [AES-3, Methyl 2-{6-cyclopropyl-4-[4-fluoro-2-(4-methyl-1,2,4-triazol-3-yl)phenyl]pyridin-2-yl}-7-methyl-1,3-benzoxazole-5-carboxylate] | 1 to 10 | 10 to 50 | –
11 | Cn1cnnc1CC1(c2cccc(-c3nc4cc(C(=O)N5CC[C@H](O)C5)cc(C(F)(F)F)c4[nH]3)c2)COC1 [ABR-2, (S)-(3-Hydroxypyrrolidin-1-yl)(2-(3-(3-((4-methyl-4H-1,2,4-triazol-3-yl)methyl)oxetan-3-yl)phenyl)-7-(trifluoromethyl)-1H-benzo[d]imidazol-5-yl)methanone] | < 0.2 | – | 1 to 10

Next, values leading:

Row | IC50 [1] [µM] | EC50 [2] [µM] | IC50 [3] [µM] | Compound
12 | < 0.2 | 1 to 10 | 0.2 to 1 | Cn1cnnc1-c1cc(F)ccc1-c1cccc(-c2nc3cc(CO)cc(C(C)(F)F)c3o2)c1 [FF-6, (7-(1,1-Difluoroethyl)-2-(4′-fluoro-2′-(4-methyl-4H-1,2,4-triazol-3-yl)-[1,1′-biphenyl]-3-yl)benzo[d]oxazol-5-yl)methanol]
13 | < 0.2 | < 0.2 | < 0.2 | Cn1cnnc1-c1cc(F)ccc1-c1cccc(-c2nc3cc(CNC[C@@H](O)C(F)(F)F)cc(C(F)(F)F)c3o2)c1 [CR-3, (R)-1,1,1-trifluoro-3-(((2-(4′-fluoro-2′-(4-methyl-4H-1,2,4-triazol-3-yl)-[1,1′-biphenyl]-3-yl)-7-(trifluoromethyl)benzo[d]oxazol-5-yl)methyl)amino)propan-2-ol]
14 | < 0.2 | < 0.2 | < 0.2 | Cn1cnnc1-c1cc(F)ccc1-c1cc(-c2nc3cc(CNCC4(O)CCC4)cc(C(F)(F)F)c3o2)cc(C2CC2)c1 [JS-1, 1-((((2-(5-Cyclopropyl-4′-fluoro-2′-(4-methyl-4H-1,2,4-triazol-3-yl)-[1,1′-biphenyl]-3-yl)-7-(trifluoromethyl)benzo[d]oxazol-5-yl)methyl)amino)methyl)cyclobutan-1-ol]
15 | < 0.2 | < 0.2 | < 0.2 | CN(Cc1cc(C(F)(F)F)c2oc(-c3cc(-c4ccc(F)cc4-c4nncn4C)cc(C4CC4)n3)nc2c1)[C@@H]1CCC[C@@H]1O [AEW-1, (1S, 2R)-2-{1[(2-{6-Cyclopropyl-4-[4-fluoro-2-(4-methyl-1,2,4-triazol-3-yl)phenyl]pyridin-2-yl}-7-(trifluoromethyl)-1,3-benzoxazol-5-yl)methyl](methyl)amino}cyclopentan-1-ol]
16 | < 0.2 | < 0.2 | < 0.2 | Cn1cnnc1-c1cc(F)ccc1-c1cccc(-c2nc3cc(CNCC(C)(C)O)cc(F)c3o2)c1 [JN-1, 1-(((7-Fluoro-2-(4′-fluoro-2′-(4-methyl-4H-1,2,4-triazol-3-yl)-[1,1′-biphenyl]-3-yl)benzo[d]oxazol-5-yl)methyl)amino)-2-methylpropan-2-ol]
17 | < 0.2 | 0.2 to 1 | < 0.2 | Cn1cnnc1-c1cc(F)ccc1-c1cccc(-c2nc3cc(CN[C@@H]4C[C@H](O)C4(C)C)cc(C(F)(F)F)c3o2)c1 [GP-2, (1S,3R)-3-(((2-(4′-Fluoro-2′-(4-methyl-4H-1,2,4-triazol-3-yl)-[1,1′-biphenyl]-3-yl)-7-(trifluoromethyl)benzo[d]oxazol-5-yl)methyl)amino)-2,2-dimethylcyclobutan-1-ol, Formic Acid]
18 | < 0.2 | < 0.2 | < 0.2 | Cc1cc(CN[C@@H]2CCC[C@@H]2O)cc2nc(-c3cccc(-c4ccc(F)cc4-c4nncn4C)c3)oc12 [FG-2, (1S,2R)-2-(((2-(4′-Fluoro-2′-(4-methyl-4H-1,2,4-triazol-3-yl)-[1,1′-biphenyl]-3-yl)-7-methylbenzo[d]oxazol-5-yl)methyl)amino)cyclopentan-1-ol]
19 | 1 to 10 | 1 to 10 | 1 to 10 | Cn1cnnc1-c1cc(F)ccc1-c1cccc(-c2nc3cc(C(NCC4CCC4)C(F)(F)F)cc(C4CC4)c3o2)c1 (racemic) [IO-4, rac-N-(Cyclobutylmethyl)-1-(7-cyclopropyl-2-(4′-fluoro-2′-(4-methyl-4H-1,2,4-triazol-3-yl)-[1,1′-biphenyl]-3-yl)benzo[d]oxazol-5-yl)-2,2,2-trifluoroethan-1-amine]
20 | < 0.2 | < 0.2 | < 0.2 | Cn1cnnc1-c1cc(F)ccc1-c1cccc(-c2nc3cc(CN[C@@H]4CCC[C@@H]4O)c(F)c(F)c3o2)c1 [HX-8, (1S,2R)-2-(((6,7-Difluoro-2-(4′-fluoro-2′-(4-methyl-4H-1,2,4-triazol-3-yl)-[1,1′-biphenyl]-3-yl)benzo[d]oxazol-5-yl)methyl)amino)cyclopentan-1-ol]
21 | 1 to 10 | 10 to 50 | – | Cn1cnnc1-c1cc(F)ccc1-c1cccc(-c2nc3cc(NCCC4CCC4)cc(C(F)(F)F)c3o2)c1 [HU-1, N-(2-Cyclobutylethyl)-2-(4′-fluoro-2′-(4-methyl-4H-1,2,4-triazol-3-yl)-[1,1′-biphenyl]-3-yl)-7-(trifluoromethyl)benzo[d]oxazol-5-amine]
22 | 10 to 50 | 1 to 10 | – | Cn1cnnc1-c1cc(F)ccc1-c1cccc(-c2nc3cc(C(=O)O)cc(C(F)(F)F)c3o2)c1 [DB-1, 2-(4′-Fluoro-2′-(4-methyl-4H-1,2,4-triazol-3-yl)-[1,1′-biphenyl]-3-yl)-7-(trifluoromethyl)benzo[d]oxazole-5-carboxylic Acid]
